Experimental data from patent publication US9623021B2, “Nuclear receptor binding agents” (GTX, Inc., priority 2007, dated 2017).
Entries after “also recorded” stand apart in the source; their conditions may differ. Where two headings read alike, the source gives them in different places.

Key:
[1] = molecular target: ERβ ligand binding domain (Homo sapiens (Human), UniProt Q92731); assay: Competitive [3H]-estradiol radioligand binding, ERβ (Example 21); details: for Ki Ratio (ER-α/ER-β): ratio between the binding constants of ER-α and ER-β
ERβ ligand binding domain, sequence (Q92731 264-498, species assumed): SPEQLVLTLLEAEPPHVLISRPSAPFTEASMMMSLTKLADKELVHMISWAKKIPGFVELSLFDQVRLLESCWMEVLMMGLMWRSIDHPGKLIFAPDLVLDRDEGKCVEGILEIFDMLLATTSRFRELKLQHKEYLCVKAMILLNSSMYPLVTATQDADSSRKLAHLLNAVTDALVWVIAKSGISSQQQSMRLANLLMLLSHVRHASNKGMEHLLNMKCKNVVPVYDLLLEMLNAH
Experimental: (§1) ER binding affinity was determined via one of the following methods:
(§2) Briefly, the incubation mixture was filtered through a high affinity protein binding filter, and washed several times to remove any unbound radioactivity. The filter plate was air dried and sealed on the bottom.
(§3) Following incubation, plates were harvested onto GF/B filters and radioactivity was measured with a TopCount NXT (PerkinElmer). Nonspecific binding was subtracted from total binding to yield specific binding.

[2] = molecular target: ER-α (Rattus norvegicus (Rat), UniProt P06211); type: cell-based; details: for Estradiol activity at 100 nM, ER-α: 100 nM NRBA compared to 1 nM estradiol
Experimental: COS or 293 cells were plated in DME without phenol red+10% cs FBS at 90,000 cells per well in 24 well plates, and were transfected with 0.25 μg of the vector “ERE-LUC”, where a firefly luciferase gene was driven by two estrogen responsive elements and 0.02 μg of the control CMV-LUC, Renilla where a luciferase gene was driven by a CMV promoter. […] All the receptors were cloned from rat tissue into the PCR3.1 vector backbone. Twenty four hours post transfection, cells were treated with compounds of this invention, estrogen, DHT, and other NRBAs or combinations thereof. Cells were harvested 48 hrs after transfection, and assayed for firefly and Renilla luciferase activity.

[3] = molecular target: ER-β (Rattus norvegicus (Rat), UniProt Q62986); assay: ER-β transactivation, ERE-LUC reporter in COS or 293 cells (Example 21B); type: cell-based
ER-β, sequence (Q62986 whole entry): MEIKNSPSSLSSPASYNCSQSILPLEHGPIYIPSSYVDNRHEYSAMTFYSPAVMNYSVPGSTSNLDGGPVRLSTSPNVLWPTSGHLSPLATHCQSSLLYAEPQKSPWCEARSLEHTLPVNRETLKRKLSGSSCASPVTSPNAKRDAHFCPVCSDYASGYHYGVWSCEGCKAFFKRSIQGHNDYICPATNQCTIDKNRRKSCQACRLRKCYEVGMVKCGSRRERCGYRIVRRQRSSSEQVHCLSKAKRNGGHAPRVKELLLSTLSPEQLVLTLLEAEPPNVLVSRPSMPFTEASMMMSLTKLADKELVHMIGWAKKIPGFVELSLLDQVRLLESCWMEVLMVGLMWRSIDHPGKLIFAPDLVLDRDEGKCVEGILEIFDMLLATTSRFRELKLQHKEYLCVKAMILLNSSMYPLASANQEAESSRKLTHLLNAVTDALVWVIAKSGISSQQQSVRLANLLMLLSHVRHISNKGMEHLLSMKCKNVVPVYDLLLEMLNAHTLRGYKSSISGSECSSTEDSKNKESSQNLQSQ

[4] = tested on: ARPE-19 cells; assay: Fluorescent detection of intracellular ROS in ARPE-19 cells (tBH oxidative stress); details: 150 μM tBH, FIG. 20B
[5] = molecular target: ERα ligand binding domain (Homo sapiens (Human), UniProt P03372); assay: Competitive [3H]-estradiol radioligand binding, ERα (Example 21)
ERα ligand binding domain, sequence (P03372 whole entry, looked up, species assumed, the tested form may be a part): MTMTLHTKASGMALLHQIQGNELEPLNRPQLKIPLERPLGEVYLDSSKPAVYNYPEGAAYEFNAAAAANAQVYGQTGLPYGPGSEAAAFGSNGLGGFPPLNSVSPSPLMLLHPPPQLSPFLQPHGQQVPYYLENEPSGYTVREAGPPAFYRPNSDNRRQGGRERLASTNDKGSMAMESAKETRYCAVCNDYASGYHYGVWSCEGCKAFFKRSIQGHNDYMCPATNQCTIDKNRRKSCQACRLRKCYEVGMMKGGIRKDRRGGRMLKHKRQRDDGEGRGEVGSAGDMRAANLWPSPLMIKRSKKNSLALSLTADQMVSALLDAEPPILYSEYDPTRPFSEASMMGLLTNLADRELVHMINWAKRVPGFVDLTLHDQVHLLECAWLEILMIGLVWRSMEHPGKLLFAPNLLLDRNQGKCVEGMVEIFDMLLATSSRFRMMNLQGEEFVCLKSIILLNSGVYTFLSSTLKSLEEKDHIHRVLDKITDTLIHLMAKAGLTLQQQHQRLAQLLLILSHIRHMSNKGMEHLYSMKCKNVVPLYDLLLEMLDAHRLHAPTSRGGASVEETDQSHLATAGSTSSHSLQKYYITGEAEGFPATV
Experimental: as §1, §2, §3

[6] = tested on: uterus; assay: Uterotropic assay; details: 50 μg/kg/day s.c., 3 days
Experimental: Statistical differences among groups were evaluated by one-way ANOVA. Rats were treated for 3 consecutive days and then sacrificed 24 h after the last dose. The body of the uterus was cut just above its junction with the cervix and at the junction of the uterine horns with the ovaries. The uterus was weighed with and without intrauterine fluid. Statistical comparisons were made between the weights of empty uteri.

[7] = tested on: SHP promoter; assay: SHP promoter-luciferase in HEK-293 cells transfected with FXR and ER-β; type: cell-based; details: FXR and ER-β plasmids, FIG. 12E right panel
Experimental: FIG. 12 depict the effect of ER-β ligand on PPAR-γ function through ligand binding domain (LBD). (A). HEK-293 cells were transfected with 0.25 μg PPRE-LUC, 5 ng CMV-renilla LUC and the indicated receptors (PPAR-γ and ER-β for the left panel and PPAR-α and ER-β for the right panel). The cells were treated 24 hrs after transfection with the indicated ligands and harvested 48 hrs after transfection and firefly luciferase activity was measured and normalized to renilla luciferase. (B). H475 in ER-β LBD is important for its function. H475 in ER-β LBD was mutated to alanine (A) using a site directed mutagenesis kit. Transactivation assay was performed as described in panel A in HEK-293 cells with a titration of ER-β ligands in wild type or ER-β H475A. (C). […] HEK-293 cells were transfected with 0.25 μg PPRE-LUC, 5 ng CMV-renilla LUC and 50 ng of the indicated receptors (PPAR-γ or PPAR-γ and wild type ER-β or PPAR-γ and ER-β H475A). The cells were treated 24 hrs after transfection with the indicated ligands and harvested 48 hrs after transfection and firefly luciferase activity was measured and normalized to renilla luciferase. (D). […] HepG2 cells were transfected with 0.25 μg PPRE-LUC, 5 ng CMV-renilla LUC, 0.5 μg PGC-1 or vector backbone and 100 ng of the indicated receptors (PPAR-γ or PPAR-γ and wild type ER-β or PPAR-γ and ER-β H475A for top panels and PPAR-α or PPAR-α and ER-β for bottom panel). The cells were treated 24 hrs after transfection with the indicated ligands and harvested 48 hrs after transfection and firefly luciferase activity was measured and normalized to renilla luciferase. (E). SHP-1 is an ER-β specific target gene. HEK-293 cells were transfected with 0.25 μg SHP-LUC, 5 ng CMV-renilla LUC and 50 ng of the indicated receptors (FXR and ER-α for the left panel and FXR and ER-β for the right panel). The cells were treated 24 hrs after transfection with the indicated ligands and harvested 48 hrs after transfection and firefly luciferase activity was measured and normalized to renilla luciferase. […]

## O=c1c2ccc(O)cc2c(Cl)cn1-c1ccc(O)cc1 [Compound 12f, 4-chloro-6-hydroxy-2-(4-hydroxyphenyl)-isoquinolin-1(2H)-one]
[1]
  Ki Ratio (ER-α/ER-β): 61

## O=c1c2ccc(O)cc2c(I)cn1-c1ccc(O)cc1 [Compound 12h, 6-hydroxy-2-(4-hydroxyphenyl)-4-iodoisoquinolin-1(2H)-one]
[1]
  Ki Ratio (ER-α/ER-β): 22

## O=c1c2c(O)cc(O)cc2ccn1-c1ccc(O)cc1 [Compound 12l, 6,8-dihydroxy-2-(4-hydroxyphenyl)-isoquinolin-1(2H)-one]
[2]; dose 0.1 nM
  ER-α RLU/RenRLU: 0.07 RLU/RenRLU
[2]; dose 1 nM
  ER-α RLU/RenRLU: 0.07 RLU/RenRLU
[2]; dose 10 nM
  ER-α RLU/RenRLU: 0.07 RLU/RenRLU
[2]; dose 100 nM
  ER-α RLU/RenRLU: 0.12 RLU/RenRLU
[2]; dose 1000 nM
  ER-α RLU/RenRLU: 0.24 RLU/RenRLU
[3]; dose 0.1 nM
  ER-β RLU/RenRLU: 0.06 RLU/RenRLU
[3]; dose 1 nM
  ER-β RLU/RenRLU: 0.07 RLU/RenRLU
[3]; dose 10 nM
  ER-β RLU/RenRLU: 0.16 RLU/RenRLU
[3]; dose 100 nM
  ER-β RLU/RenRLU: 0.46 RLU/RenRLU
[3]; dose 1000 nM
  ER-β RLU/RenRLU: 0.55 RLU/RenRLU

## Oc1ccc(-n2ccc3cc(O)cc(O)c3c2=S)cc1 [Compound 12p, 2-(4-hydroxyphenyl)-6,8-dihydroxy-isoquinoline-1(2H)-thione]
[1]
  Ki: 17 nM
  Ki Ratio (ER-α/ER-β): 8
[2]
  Estradiol activity at 100 nM, ER-α: 45%

## COc1cc(O)c2c(=O)n(-c3ccc(O)cc3)ccc2c1C#N [Compound 12q, 8-hydroxy-2-(4-hydroxyphenyl)-6-methoxy-1-oxo-1,2-dihydroisoquinoline-5-carbonitrile]
[2]
  Estradiol activity at 100 nM, ER-α: 25%

## O=c1c2c(O)cc(O)cc2ccn1-c1ccc(O)c(F)c1 [Compound 12s, 2-(3-fluoro-4-hydroxyphenyl)-6,8-dihydroxyisoquinolin-1(2H)-one]
[1]
  Ki Ratio (ER-α/ER-β): 25
[2]
  Estradiol activity at 100 nM, ER-α: 29%

## COc1cc(O)c2c(=O)n(-c3ccc(O)cc3)cc(Br)c2c1 [Compound 12v, 4-bromo-8-hydroxy-2-(4-hydroxyphenyl)-6-methoxyisoquinolin-1(2H)-one]
[2]
  Estradiol activity at 100 nM, ER-α: 17%

## O=c1c2c(O)cc(O)cc2c(Br)cn1-c1ccc(O)c(F)c1 [Compound 12z, 4-bromo-6,8-dihydroxy-2-(3-fluoro-4-hydroxyphenyl)isoquinolin-1(2H)-one]
[1]
  Ki Ratio (ER-α/ER-β): 12
[4]
  prevention of ROS formation / oxidative damage: able to prevent ROS formation as well as estradiol; also recorded: protected ARPE-19 cells from oxidative damage
[5]
  Ki: 40 nM

## C=Cc1cn(-c2ccc(O)cc2)c(=O)c2c(O)cc(O)cc12 [Compound 14l, 6,8-dihydroxy-2-(4-hydroxyphenyl)-4-vinylisoquinolin-1(2H)-one]
[1]
  Ki: 6 nM
[4]
  prevention of ROS formation / oxidative damage: protected ARPE-19 cells from oxidative damage
[5]
  Ki: 76 nM
[2]
  Estradiol activity at 100 nM, ER-α: 50%

## COc1ccc(-c2cn(-c3ccc(O)cc3)c(=O)c3ccc(O)cc23)cc1 [Compound 15b, 6-hydroxy-2-(4-hydroxyphenyl)-4-(4-methoxyphenyl)isoquinolin-1(2H)-one]
[1]
  Ki Ratio (ER-α/ER-β): 8.3

## C[C@]12CC[C@@H]3c4ccc(O)cc4CC[C@H]3[C@@H]1CC[C@@H]2O [Estradiol]
[6]
  uterine growth / uterine weight: stimulated the proliferation of uterus significantly

## CC(C)c1onc(-c2c(Cl)cccc2Cl)c1COc1ccc(/C=C/c2cccc(C(=O)O)c2)c(Cl)c1 [GW4064, reference compound]
[7]
  SHP activity: increased its activity significantly
